Test results reported in publication PMC8092108, “Mycophenolate suppresses inflammation by inhibiting prostaglandin synthases: a study of molecular and experimental drug repurposing” (PeerJ, 2021).
Values joined by “and” are separate entries in the source; they are usually repeats but may differ in a detail not shown here. Equal values may be shown once.

Columns and labels:
[1] = tested on: carrageenan-induced paw edema; assay: Carrageenan-induced rat paw edema test; assay type: in vivo; parameters: key to Tukey's test Summary: Significant (s); non-significant (ns); conditions: for Tukey's test Significant? / Tukey's test Summary: mean paw size 3–5 h; for Rat paw size: individual rats 1-7
Experimental: The in vivo assay was performed by the rat paw edema inhibition test as previously described ([Morris, 2003]; [Winter, Risley & Nuss, 1962]). Forty-nine male adult albino rats weighing […] were obtained from the Animal Breeding Center at the College of Veterinary Medicine, King Faisal University, and were randomly divided into seven groups (n = 7/group). The animal groups included the nontreated control group, carrageenan group, and five groups receiving carrageenan and treated with either indomethacin, celecoxib, or MMF at three doses (12.5, 25, and 50 mg/kg). All rats were allowed free access to food and water. All cages were kept in controlled rooms at 25 °C and exposed to a 12-h light/dark cycle. MMF and two reference drugs, indomethacin and celecoxib, were suspended in 1% NaCMC in normal saline. A 1% carrageenan solution in normal saline was injected into the subplantar area of the right hind paw of rats. One hour before injection of carrageenan, rats were given either indomethacin or celecoxib at a dose rate of 10 mg/kg or MMF at three dose levels of 12.5, 25, and 50 mg/kg by oral administration. […] The measurements were blind to avoid measurement bias. The King Faisal University Ethics Committee (approval no. KFU-REC/2020-10-11) approved all animal experiments. Since no samples were taken from rats, there were no anesthesia procedures. The size of the hind paw was only measured in non-anesthetized rats. At the end of the experiment, all rats were euthanized according to the regulations of the King Faisal University Ethics Committee by an overdose of pentobarbital (200 mg/kg IP) and decapitation. The effect of MMF at different doses on relieving rat paw edema was compared with the control and standard NSAID-treated groups. Significant differences were determined by one-way analysis of variance (ANOVA) with Tukey’s post hoc test. All steps were implemented using GraphPad prism software (GraphPad Software, La Jolla, CA, USA).

COX-2 = molecular target: T1, COX-2 (Homo sapiens, UniProt P35354); assay: COX inhibitor screening assay, COX-2; assay type: biochemical
T1 construct: purchased
T1 sequence (P35354 18-604): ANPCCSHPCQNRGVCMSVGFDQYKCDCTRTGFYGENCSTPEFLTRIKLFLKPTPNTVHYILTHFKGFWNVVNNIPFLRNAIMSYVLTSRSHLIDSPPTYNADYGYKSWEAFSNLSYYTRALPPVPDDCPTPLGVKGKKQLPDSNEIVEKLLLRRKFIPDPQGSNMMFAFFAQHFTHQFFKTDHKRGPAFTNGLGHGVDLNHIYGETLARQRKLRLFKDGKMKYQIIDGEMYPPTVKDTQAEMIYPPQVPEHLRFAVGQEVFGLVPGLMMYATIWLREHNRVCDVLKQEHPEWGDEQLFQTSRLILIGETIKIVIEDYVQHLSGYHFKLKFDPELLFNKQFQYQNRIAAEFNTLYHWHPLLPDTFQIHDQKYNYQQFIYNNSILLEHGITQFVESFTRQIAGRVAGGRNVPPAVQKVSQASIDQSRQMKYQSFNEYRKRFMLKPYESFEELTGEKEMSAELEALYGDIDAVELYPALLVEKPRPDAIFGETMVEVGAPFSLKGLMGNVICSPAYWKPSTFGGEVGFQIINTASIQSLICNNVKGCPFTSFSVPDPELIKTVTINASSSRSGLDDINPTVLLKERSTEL
Experimental: The inhibitory effects of the drugs MMF and MPA on COX-1 and COX-2 were measured using the COX inhibitor screening assay kit and LOX inhibitor screening kit. […] Briefly, the reaction buffer (Tris–HCl buffer, pH 8.0) containing 5 mM EDTA, 2 mM phenol, and 1 µM hematin was measured into test tubes. The test drugs were dissolved in dimethyl sulfoxide and added to the tubes to final concentrations of […]. COX-1 or COX-2 was added to the test tubes and preincubated for 10 min at 37 °C. Arachidonic acid was then added, and the tubes were incubated for 2 min at 37 °C. The enzyme immunoassay was used to measure the concentration of the product prostaglandin F2α (PGF2α). The estimated values were determined after comparison to the predetermined standard curve. The IC50 was determined after three different experiments. The selectivity index was calculated from Eq. (1):
(1) Selectivity index=IC50COX−1/IC50COX−2

[2] = Indomethacin vs. MMF 12.5 mg/kg

COc1c(C)c2c(c(O)c1C/C=C(\C)CCC(=O)OCCN1CCOCC1)C(=O)OC2 [Mycophenolate mofetil]
Rat paw size at 3, 4 and 5 h after treatment ([1]; 12.5, 25, 50 mg/kg MMF): dose-dependent decrease in edema
Rat paw edema 2–5 h after drug administration ([1]; 12.5, 25 and 50 mg/kg MMF oral): significant decrease
Tukey's test Significant? ([1]; Carrageenan vs. MMF 12.5 mg/kg): Yes
Tukey's test Summary ([1]; Carrageenan vs. MMF 12.5 mg/kg): s
Tukey's test Significant? ([1]; Carrageenan vs. MMF 25 mg/kg): Yes
Tukey's test Summary ([1]; Carrageenan vs. MMF 25 mg/kg): s
Tukey's test Significant? ([1]; Carrageenan vs. MMF 50 mg/kg): Yes
Tukey's test Summary ([1]; Carrageenan vs. MMF 50 mg/kg): s
Tukey's test Significant? ([1]; Celecoxib vs. MMF 12.5 mg/kg): No
Tukey's test Summary ([1]; Celecoxib vs. MMF 12.5 mg/kg): ns
Tukey's test Significant? ([1]; Celecoxib vs. MMF 25 mg/kg): No
Tukey's test Summary ([1]; Celecoxib vs. MMF 25 mg/kg): ns
Tukey's test Significant? ([1]; Celecoxib vs. MMF 50 mg/kg): No
Tukey's test Summary ([1]; Celecoxib vs. MMF 50 mg/kg): ns
Tukey's test Significant? [1, 2]: No
Tukey's test Summary [1, 2]: ns
Tukey's test Significant? ([1]; Indomethacin vs. MMF 25 mg/kg): No
Tukey's test Summary ([1]; Indomethacin vs. MMF 25 mg/kg): ns
Rat paw size ([1]; MMF 12.5 mg Kg oral, Time (h) 1): 0.75 cm (3×) and 0.73 cm (3×) and 0.7 cm
Rat paw size ([1]; MMF 12.5 mg Kg oral, Time (h) 2): 0.75 cm (3×) and 0.76 cm (3×) and 0.8 cm
Rat paw size ([1]; MMF 12.5 mg Kg oral, Time (h) 3): 0.75 cm and 0.8 cm
Rat paw size ([1]; MMF 25 mg/Kg oral, Time (h) 1): 0.74 cm (2×) and 0.75 cm (4×) and 0.77 cm
Rat paw size ([1]; MMF 25 mg/Kg oral, Time (h) 2): 0.7 cm (3×) and 0.65 cm and 0.71 cm and 0.75 cm and 0.69 cm
Rat paw size ([1]; MMF 25 mg/Kg oral, Time (h) 3): 0.59 cm and 0.6 cm and 0.55 cm (2×) and 0.5 cm and 0.65 cm and 0.57 cm
Rat paw size ([1]; MMF 25 mg/Kg oral, Time (h) 4): 0.46 cm and 0.5 cm (2×) and 0.45 cm (2×) and 0.47 cm and 0.48 cm
Rat paw size ([1]; MMF 25 mg/Kg oral, Time (h) 5): 0.45 cm (5×) and 0.5 cm and 0.4 cm
Rat paw size ([1]; MMF 25 mg/Kg oral, Time (h) 6): 0.57 cm and 0.6 cm (2×) and 0.5 cm and 0.65 cm and 0.55 cm and 0.54 cm
Rat paw size ([1]; MMF 50mg/kg oral, Time (h) 1): 0.75 cm
Rat paw size ([1]; MMF 50mg/kg oral, Time (h) 2): 0.75 cm and 0.7 cm (3×) and 0.65 cm and 0.66 cm and 0.68 cm
Rat paw size ([1]; MMF 50mg/kg oral, Time (h) 3): 0.65 cm (2×) and 0.6 cm (2×) and 0.55 cm and 0.62 cm and 0.58 cm
Rat paw size ([1]; MMF 50mg/kg oral, Time (h) 4): 0.55 cm (2×) and 0.5 cm (2×) and 0.52 cm and 0.53 cm and 0.51 cm
Rat paw size ([1]; MMF 50mg/kg oral, Time (h) 5): 0.45 cm (3×) and 0.5 cm and 0.46 cm (3×)
Rat paw size ([1]; MMF 50mg/kg oral, Time (h) 6): 0.6 cm (3×) and 0.5 cm and 0.65 cm and 0.56 cm and 0.58 cm
Rat paw edema after treatment ([1]; MMF 12.5–50 mg/kg, indomethacin or celecoxib 10 mg/kg oral): significantly relieved
Most effective dose in the rat paw edema test ([1]; oral): 50 mg/kg
IC50 (COX-2): 0.19 µM
